ChEMBL document CHEMBL1201862, “PubChem BioAssay data set” (2004)
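Test compounds were applied to cells in 96-well plates for 48 hours at 5 doses. Here, GI50 denotes the concentration required for 50% inhibition of growth.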 The source made the active and inactive calls. Cut-off read from the data, not from the text of the source: active = GI50 up to about 1.1 µM and inactive = higher.

Tests used:
Experiment in all cases: NCI anticancer screen, dose series, 48 h
KM-20L2 = system: KM-20L2
SNB-75 = system: SNB-75
M14 = system: M14
SN12C = system: SN12C
NCI-H226 = system: NCI-H226
TK-10 = system: TK-10
RXF 631 = system: RXF 631
IGROV-1 = system: IGROV-1
SF-268 = system: SF-268
COLO 205 = system: COLO 205
CAKI-1 = system: CAKI-1
RPMI-8226 = system: RPMI-8226
SK-OV-3 = system: SK-OV-3
HL-60 = system: HL-60
M19-MEL = system: M19-MEL
DMS-273 = system: DMS-273
DMS-114 = system: DMS-114
XF498 = system: XF498
NCI-H522 = system: NCI-H522
K562 = system: K562
UO-31 = system: UO-31
SK-MEL-2 = system: SK-MEL-2
OVCAR-4 = system: OVCAR-4
NCI-H23 = system: NCI-H23
LXFL 529 = system: LXFL 529
HT-29 = system: HT-29
ACHN = system: ACHN
SNB-19 = system: SNB-19
A498 = system: A498
MOLT-4 = system: MOLT-4
RXF 393 = system: RXF 393
U-251 = system: U-251
CCRF-CEM = system: CCRF-CEM
KM12 = system: KM12
A549 = system: A549
NCI-H460 = system: NCI-H460
DLD-1 = system: DLD-1
SK-MEL-5 = system: SK-MEL-5
OVCAR-8 = system: OVCAR-8
HOP-92 = system: HOP-92
SW-620 = system: SW-620
OVCAR-3 = system: OVCAR-3
HOP-18 = system: HOP-18
SK-MEL-28 = system: SK-MEL-28
LOX IMVI = system: LOX IMVI
HOP-62 = system: HOP-62
786-0 = system: 786-0
Malme-3M = system: Malme-3M
UACC-257 = system: UACC-257
HCT-116 = system: HCT-116
HCT-15 = system: HCT-15
UACC-62 = system: UACC-62
SNB-78 = system: SNB-78
HCC 2998 = system: HCC 2998
SR = system: SR
OVCAR-5 = system: OVCAR-5
SF-295 = system: SF-295
EKVX = system: EKVX
SF-539 = system: SF-539

COc1cccc(C(=O)C2C(=O)N(C)CCc3ccccc32)c1OC (stereo not given)
GI50 (KM-20L2): > 100 µM (inactive) | GI50 (SNB-75): > 100 µM (inactive) | GI50 (M14): > 100 µM (inactive) | GI50 (SN12C): > 100 µM (inactive) | GI50 (NCI-H226): > 100 µM (inactive) | GI50 (TK-10): > 100 µM (inactive) | GI50 (RXF 631): > 100 µM (inactive) | GI50 (IGROV-1): > 100 µM (inactive) | GI50 (SF-268): > 10 µM (inactive) | GI50 (COLO 205): > 100 µM (inactive) | GI50 (CAKI-1): > 100 µM (inactive) | GI50 (RPMI-8226): > 100 µM (inactive) | GI50 (SK-OV-3): > 100 µM (inactive) | GI50 (HL-60): > 100 µM (inactive) | GI50 (M19-MEL): > 100 µM (inactive) | GI50 (DMS-273): > 100 µM (inactive) | GI50 (DMS-114): > 100 µM (inactive) | GI50 (XF498): > 100 µM (inactive) | GI50 (NCI-H522): > 100 µM (inactive) | GI50 (K562): > 100 µM (inactive) | GI50 (UO-31): > 100 µM (inactive) | GI50 (SK-MEL-2): > 100 µM (inactive) | GI50 (OVCAR-4): > 100 µM (inactive) | GI50 (NCI-H23): > 100 µM (inactive) | GI50 (LXFL 529): > 100 µM (inactive) | GI50 (HT-29): > 100 µM (inactive) | GI50 (ACHN): > 100 µM (inactive) | GI50 (SNB-19): > 100 µM (inactive) | GI50 (A498): > 100 µM (inactive) | GI50 (MOLT-4): > 100 µM (inactive) | GI50 (RXF 393): > 100 µM (inactive) | GI50 (U-251): > 100 µM (inactive) | GI50 (CCRF-CEM): > 100 µM (inactive) | GI50 (KM12): > 100 µM (inactive) | GI50 (A549): > 100 µM (inactive) | GI50 (NCI-H460): > 100 µM (inactive) | GI50 (DLD-1): > 100 µM (inactive) | GI50 (SK-MEL-5): > 100 µM (inactive) | GI50 (OVCAR-8): > 100 µM (inactive) | GI50 (HOP-92): > 100 µM (inactive) | GI50 (SW-620): > 100 µM (inactive) | GI50 (OVCAR-3): > 100 µM (inactive) | GI50 (HOP-18): > 100 µM (inactive) | GI50 (SK-MEL-28): > 100 µM (inactive) | GI50 (LOX IMVI): > 100 µM (inactive) | GI50 (HOP-62): > 100 µM (inactive) | GI50 (786-0): > 100 µM (inactive) | GI50 (Malme-3M): > 100 µM (inactive) | GI50 (UACC-257): > 100 µM (inactive) | GI50 (HCT-116): > 100 µM (inactive) | GI50 (HCT-15): > 100 µM | GI50 (UACC-62): > 100 µM (inactive)

O=C(NO)c1ccc(O)c(O)c1
GI50 (KM-20L2): > 100 µM (inactive) | GI50 (SNB-75): > 100 µM (inactive) | GI50 (SNB-78): > 100 µM (inactive) | GI50 (M14): > 100 µM (inactive) | GI50 (HCC 2998): > 100 µM (inactive) | GI50 (SN12C): > 100 µM (inactive) | GI50 (NCI-H226): > 100 µM (inactive) | GI50 (TK-10): 98.6 µM (inactive) | GI50 (RXF 631): > 100 µM (inactive) | GI50 (IGROV-1): > 100 µM (inactive) | GI50 (SF-268): > 100 µM (inactive) | GI50 (COLO 205): > 100 µM (inactive) | GI50 (CAKI-1): > 100 µM (inactive) | GI50 (RPMI-8226): 32.4 µM (inactive) | GI50 (SK-OV-3): > 100 µM (inactive) | GI50 (HL-60): 9.77 µM (inactive) | GI50 (M19-MEL): > 100 µM (inactive) | GI50 (SR): 36.4 µM (inactive) | GI50 (OVCAR-5): 94.6 µM (inactive) | GI50 (DMS-273): 27.8 µM (inactive) | GI50 (DMS-114): 55.1 µM (inactive) | GI50 (XF498): > 100 µM (inactive) | GI50 (NCI-H522): 79.4 µM (inactive) | GI50 (K562): 26.5 µM (inactive) | GI50 (UO-31): > 100 µM (inactive) | GI50 (OVCAR-4): > 100 µM (inactive) | GI50 (NCI-H23): > 100 µM (inactive) | GI50 (LXFL 529): > 100 µM (inactive) | GI50 (HT-29): > 100 µM (inactive) | GI50 (ACHN): > 100 µM (inactive) | GI50 (SF-295): 29.5 µM (inactive) | GI50 (SNB-19): > 100 µM (inactive) | GI50 (A498): > 100 µM (inactive) | GI50 (EKVX): > 100 µM (inactive) | GI50 (MOLT-4): 93.3 µM (inactive) | GI50 (RXF 393): > 100 µM (inactive) | GI50 (U-251): > 100 µM (inactive) | GI50 (CCRF-CEM): 42.1 µM (inactive) | GI50 (KM12): > 100 µM (inactive) | GI50 (A549): > 100 µM (inactive) | GI50 (NCI-H460): 70.3 µM (inactive) | GI50 (DLD-1): > 100 µM (inactive) | GI50 (SK-MEL-5): > 100 µM (inactive) | GI50 (OVCAR-8): 79.1 µM (inactive) | GI50 (HOP-92): > 100 µM (inactive) | GI50 (SW-620): 47.6 µM (inactive) | GI50 (OVCAR-3): > 100 µM (inactive) | GI50 (HOP-18): 72.3 µM (inactive) | GI50 (SK-MEL-28): > 100 µM (inactive) | GI50 (LOX IMVI): > 10 µM (inactive) | GI50 (HOP-62): > 100 µM (inactive) | GI50 (786-0): > 100 µM (inactive) | GI50 (Malme-3M): > 100 µM (inactive) | GI50 (UACC-257): > 100 µM (inactive) | GI50 (HCT-116): > 100 µM (inactive) | GI50 (SF-539): > 100 µM (inactive) | GI50 (HCT-15): 98.4 µM | GI50 (UACC-62): > 100 µM (inactive)
